Reference: ChEMBL document CHEMBL2321817, “Detecting allosteric sites of HIV-1 reverse transcriptase by X-ray crystallographic fragment screening” (J Med Chem, 2013)
Active and inactive are the calls of the source. No cut-off for these calls is given here.

Tests used:
[1] = molecular target: T1, Human immunodeficiency virus type 1 reverse transcriptase (Human immunodeficiency virus 1, UniProt Q72547); assay: Inhibition of wild type HIV-1 reverse transcriptase incoming nucleotide binding site after 30 mins by fluorescence assay
[2] = molecular target: T1, Human immunodeficiency virus type 1 reverse transcriptase; assay: Inhibition of wild type HIV-1 reverse transcriptase p66/p51 NNRTI adjacent binding site after 30 mins by fluorescence assay
[3] = molecular target: T1, Human immunodeficiency virus type 1 reverse transcriptase; assay: Inhibition of wild type HIV-1 reverse transcriptase 507 site incubated after 30 mins by fluorescence assay
[4] = molecular target: Human immunodeficiency virus type 1 reverse transcriptase (Human immunodeficiency virus 1) (UniProt Q72547); assay: Inhibition of wild type HIV-1 reverse transcriptase p66/p51 399 site after 30 mins by fluorescence assay
[5] = molecular target: Human immunodeficiency virus type 1 reverse transcriptase (Human immunodeficiency virus 1) (UniProt Q72547); assay: Inhibition of wild type HIV-1 reverse transcriptase knuckles site at 1 mM after 30 mins by fluorescence assay
[6] = molecular target: Human immunodeficiency virus type 1 reverse transcriptase (Human immunodeficiency virus 1) (UniProt Q72547); assay: Inhibition of wild type HIV-1 reverse transcriptase RNase H primer grip adjacent site after 30 mins by fluorescence assay
[7] = molecular target: T1, Human immunodeficiency virus type 1 reverse transcriptase; assay: Inhibition of wild type HIV-1 reverse transcriptase knuckles site after 30 mins by fluorescence assay
[8] = molecular target: Human immunodeficiency virus type 1 reverse transcriptase (Human immunodeficiency virus 1) (UniProt Q72547); assay: Inhibition of wild type HIV-1 reverse transcriptase 428 site at 1 mM after 30 mins by fluorescence assay relative to control

## CN1CCN(c2ccc(C(=O)O)cc2)CC1
[1]
  IC50: 200 µM

## CCOC(=O)c1cnn2ccccc12
[2]
  IC50: 350 µM

## CN(CC(=O)N1CCCc2ccccc21)Cc1nc(=O)c2ccccc2[nH]1
[3]
  IC50: 150 µM

## Cc1c(CO)cnn1-c1ccc(F)cc1
[4]
  inhibition: inactive

## NCc1ccc(OC(F)(F)F)cc1
[5]
  inhibition: inactive

## Cn1ncc(C(=O)O)c1-c1ccccc1
[6]
  inhibition: inactive

## Oc1ccc(OC(F)(F)F)cc1
[7]
  IC50: 600 µM

## NCC(=O)Nc1ccc2[nH]c(=O)[nH]c2c1
[8]
  inhibition: 30%
